# Assay results reported in US20220289732A1, “HETEROCYCLIC WDR5 INHIBITORS AS ANTI-CANCER COMPOUNDS” (NOVARTIS AG, priority 2019, published 2022).
# How the values were obtained:
# WDR5 = WDR5 (Homo sapiens, UniProt P61964); experiment: WDR5 HTRF binding assay; conditions: read-out: (a) WDR5 HTRF Pep Val v.1[Inhibitor/IC50]Qualified AC50
# Summary of the method: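 6 nM WDR5 and 20 nM biotin-MLL1 WIN peptide (3762-3773) were incubated with compound (12-point, 3-fold dilutions) in pH 7.5 Hepes/NaCl/DTT buffer for 20 min at rt. Streptavidin-APC plus anti-His-Eu were then added for 1 hr, with HTRF read at 665/615. IC50 was fit from control-normalized activity; the counter assay used 15 nM biotin-PEG-His peptide.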
# [1] = biological target: wild type MLL1 four-member complex (MLL1-4C) (Homo sapiens, UniProt P61964); experiment: MLL1 LC-MS assay (SAH production); assay type: biochemical; conditions: read-out: (b) MLL LCMS Peptide Val.v.1 Qualified AC50
# Summary of the method: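 MLL1-4C (30 nM final) was preincubated 20 min with compound (3-fold dilutions, 8 or 12 points) and SAM in Tris-HCl pH 8.0 buffer. H3K4me0 peptide (histone H3[1-21]-biotin) was then added, giving final 2.5 μM SAM and 10 μM substrate, and reactions ran 120 min at rt. After TFA/d4-SAH quench, SAH was quantified by LC-MS/MS and IC50 fitted from control-normalised activity.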
# MV4-11 cells = experiment: MV4-11 6-day cell growth CTG (CellTiter-Glo) assay; assay type: cell-based; conditions: Homo sapiens, MV4-11, 144 h, 6 days, read-out: (c) MLL/WDR5 cell proliferation assay//MLL/WDR5 proliferation MV4:11 Qualified AC50
# Summary of the method: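 Exponentially growing MV4-11 AML cells (RPMI 1640, 10% FBS) seeded at 300 cells/well with 12-point 1:3 compound dilutions, top final concentration 50 μM. Viability read by CellTiter-Glo luminescence after 6 days at 37° C; % inhibition vs DMSO-only wells fitted to dose-response for IC50.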
Structure (SMILES),IC50 (WDR5) [nM],AC50 [1] [nM],AC50 (MV4-11 cells) [nM]
CCOc1cc([C@H](C)N2CCc3c(cc(CCN4CC[C@H]4CO)cc3-c3ccc(F)nc3C)C2=O)ncc1C#N [Example 243],10 to 1000,10 to 1000,10 to 1000
CCOc1cc([C@H](C)N2CCc3c(cc(CCN4C[C@@H](OC)[C@H]4C)cc3-c3ccc(F)nc3C)C2=O)ncc1C#N [Example 244],10 to 1000,10 to 1000,10 to 1000
CCOc1cc(CN2CCc3c(cc(CCN4CC[C@H]4C)cc3-c3ccc(F)nc3C)C2=O)ncc1C#N [Example 245],10 to 1000,10 to 1000,10 to 1000
CCOc1cc([C@H](C)N2CCc3c(cc(CCN(C)CC(C)O)cc3-c3cc(C)cnc3C)C2=O)ncc1C#N (stereo partly drawn) [Example 246],10 to 1000,10 to 1000,10 to 1000
CCOc1cc([C@H](C)N2CCc3c(cc(CCN(C)CCF)cc3-c3ccc(F)nc3C)C2=O)ncc1C#N [Example 247],10 to 1000,10 to 1000,10 to 1000
CCOc1cc(C(C)N2CCc3c(cc(CCN(C)CCF)cc3-c3cc(C)ncc3C)C2=O)ncc1C#N (stereo not drawn) [Example 248],10 to 1000,10 to 1000,10 to 1000
CCOc1cc([C@H](C)N2CCc3c(cc(CCN4CC(F)C4)cc3-c3cn(C)c(=O)cc3C(F)(F)F)C2=O)ncc1C#N [Example 249],10 to 1000,10 to 1000,10 to 1000
CCOc1cc([C@H](C)N2CCc3c(cc(CCN(C)CCO)cc3-c3cc(C)ncc3C)C2=O)ncc1C#N [Example 250],10 to 1000,10 to 1000,10 to 1000
CCOc1cc([C@H](C)N2CCc3c(cc(CCN(C)CCF)cc3-c3cn(C)c(=O)cc3Cl)C2=O)ncc1C#N [Example 251],10 to 1000,10 to 1000,10 to 1000
CCOc1cc([C@H](C)N2CCc3c(cc(CCN(C)CCO)cc3-c3ccc(F)nc3C)C2=O)ncc1C#N [Example 252],10 to 1000,10 to 1000,10 to 1000
CCOc1cc([C@H](C)N2CCc3c(cc(CCN(C)C4COC4)cc3-c3ccc(F)nc3C)C2=O)ncc1C#N [Example 253],10 to 1000,10 to 1000,10 to 1000
CCOc1cc([C@H](C)N2CCc3c(cc(CCN(C)CCF)cc3-c3cc(C)ncc3C)C2=O)ncc1C#N [Example 254],10 to 1000,10 to 1000,10 to 1000
COc1cc(CN2CCc3c(cc(CCN(C)C)cc3-c3cn(C)nc3C(F)(F)F)C2=O)ccc1F [Example 255],10 to 1000,10 to 1000,1000 to 25000
"CCOc1cc([C@H](C)N2CCc3c(cc(CCN(C)CC)cc3C(O)C(C)C)C2=O)ncc1C#N (stereo partly drawn) [Example 256, 4-ethoxy-6-((1S)-1-(7-(2-(ethyl(methyl)amino)ethyl)-5-(1-hydroxy-2-methylpropyl)-1-oxo-3,4-dihydroisoquinolin-2(1H)-yl)ethyl)nicotinonitrile]",10 to 1000,10 to 1000,10 to 1000
"CCOc1cc(C(C)N2CCc3c(cc(CCN(C)CC)cc3C(O)C(C)C(F)(F)F)C2=O)ncc1C#N (stereo not drawn) [Example 258, 4-ethoxy-6-(1-(7-(2-(ethyl(methyl)amino)ethyl)-1-oxo-5-(3,3,3-trifluoro-1-hydroxy-2-methylpropyl)-3,4-dihydroisoquinolin-2(1H)-yl)ethyl)nicotinonitrile]",< 10,10 to 1000,10 to 1000
"CCOc1cc(C(C)N2CCc3c(cc(CCN(C)CC)cc3C(O)C(F)(F)F)C2=O)ncc1C#N (stereo not drawn) [Example 259, 4-ethoxy-6-(1-(7-(2-(ethyl(methyl)amino)ethyl)-1-oxo-5-(2,2,2-trifluoro-1-hydroxyethyl)-3,4-dihydroisoquinolin-2(1H)-yl)ethyl)nicotinonitrile]",< 10,10 to 1000,10 to 1000
"CCOc1cc(CN2CCc3c(cc(Cn4ccnc4C)cc3-c3cn(C)nc3C)C2=O)ncc1C#N [Example 263, 6-((5-(1,3-Dimethyl-1H-pyrazol-4-yl)-7-((2-methyl-1H-imidazol-1-yl)methyl)-1-oxo-3,4-dihydroisoquinolin-2(1H)-yl)methyl)-4-ethoxynicotinonitrile]",10 to 1000,10 to 1000,10 to 1000
"CCOc1cc([C@H](C)N2CCc3c(cc(Cn4ccnc4C)cc3-c3c[nH]c(=O)cc3C(F)(F)F)C2=O)ncc1C#N [Example 269, (S)-4-Ethoxy-6-(1-(7-((2-methyl-1H-imidazol-1-yl)methyl)-1-oxo-5-(6-oxo-4-(trifluoromethyl)-1,6-dihydropyridin-3-yl)-3,4-dihydroisoquinolin-2(1H)-yl)ethyl)nicotinonitrile]",< 10,10 to 1000,10 to 1000
CCOc1cc([C@H](C)N2CCc3c(cc(Cn4ccnc4C)cc3-c3cn(CCO)nc3C)C2=O)ncc1C#N [Example 271],< 10,10 to 1000,10 to 1000
CCOc1cc([C@H](C)N2CCc3c(cc(Cn4cc(C)nc4C)cc3-c3cn(CCO)nc3C)C2=O)ncc1C#N [Example 272],< 10,10 to 1000,10 to 1000

Structure (SMILES),IC50 (WDR5) [nM],AC50 [1] [nM],AC50 (MV4-11 cells) [nM]
CCOc1cc([C@H](C)N2CCc3c(cc(Cn4cc(C)nc4C)cc3-c3cn(C)nc3C)C2=O)ncc1C#N [Example 273],< 10,10 to 1000,10 to 1000
CCOc1cc([C@H](C)N2CCc3c(cc(Cn4cc(C)nc4C)cc3-c3cn(C)c(=O)cc3C)C2=O)ncc1C#N [Example 274],< 10,10 to 1000,10 to 1000
CCOc1cc([C@H](C)N2CCc3c(cc(Cn4ccnc4C)cc3-c3cn(C)c(=O)cc3C)C2=O)ncc1C#N [Example 275],< 10,10 to 1000,10 to 1000
CCOc1cc([C@H](C)N2CCc3c(cc(Cn4cnc(C)c4)cc3-c3cn(C)nc3C)C2=O)ncc1C#N [Example 276],< 10,10 to 1000,10 to 1000
CCOc1cc([C@H](C)N2CCc3c(cc(Cn4ccnc4C)cc3-c3nn(C)cc3C)C2=O)ncc1C#N [Example 277],10 to 1000,10 to 1000,10 to 1000
CCOc1cc([C@H](C)N2CCc3c(cc(Cn4ccnc4C)cc3-c3ccnn3C)C2=O)ncc1C#N [Example 279],< 10,10 to 1000,10 to 1000
CCOc1cc([C@H](C)N2CCc3c(cc(Cn4ccnc4C)cc3-c3cc(C)nn3C)C2=O)ncc1C#N [Example 280],< 10,10 to 1000,< 10
CCOc1cc([C@H](C)N2CCc3c(cc(Cn4ccnc4C)cc3-c3cn(C)c(=O)cc3C)C2=O)ncc1F [Example 281],< 10,10 to 1000,10 to 1000
CCOc1cc([C@H](C)N2CCc3c(cc(Cn4ccnc4C)cc3-c3cc(C(F)F)cnc3C)C2=O)ncc1C#N [Example 282],< 10,10 to 1000,10 to 1000
CCOc1cc([C@H](C)N2CCc3c(cc(Cn4ccnc4C)cc3-c3cn(C)c(=O)c(F)c3C)C2=O)ncc1F [Example 283],< 10,10 to 1000,10 to 1000
CCOc1cc([C@H](C)N2CCc3c(cc(Cn4ccnc4C)cc3-c3cn(S(C)(=O)=O)nc3C)C2=O)ncc1C#N [Example 284],< 10,10 to 1000,10 to 1000
CCOc1cc([C@H](C)N2CCc3c(cc(Cn4ccnc4C)cc3-c3cn(C)c(=O)cc3C(F)F)C2=O)ncc1C#N [Example 285],< 10,10 to 1000,< 10
CCOc1cc([C@H](C)N2CCc3c(cc(Cn4ccnc4C)cc3-c3cn(C(F)F)nc3C)C2=O)ncc1C#N [Example 286],< 10,10 to 1000,< 10
CCOc1cc([C@H](C)N2CCc3c(cc(Cn4ccnc4C)cc3-c3cn(C)c(=O)c(F)c3C)C2=O)ncc1C#N [Example 287],< 10,10 to 1000,10 to 1000
CCOc1cc([C@H](C)N2CCc3c(cc(Cn4ccnc4C)cc3-c3cn(C)c(=O)cc3C(F)(F)F)C2=O)ncc1C#N [Example 288],< 10,10 to 1000,< 10
CCOc1cc([C@H](C)N2CCc3c(cc(Cn4cncc4C)cc3-c3cn(C)nc3C)C2=O)ncc1C#N [Example 289],< 10,10 to 1000,1000 to 25000
CCOc1cc([C@H](C)N2CCc3c(cc(Cn4ccnc4C)cc3-c3nn(C)nc3C)C2=O)ncc1C#N [Example 290],< 10,10 to 1000,10 to 1000
CCOc1cc([C@H](C)N2CCc3c(cc(Cn4ccnc4C)cc3-c3nn(C)c(=O)cc3C(F)(F)F)C2=O)ncc1C#N [Example 291],10 to 1000,10 to 1000,10 to 1000
CCOc1cc([C@H](C)N2CCc3c(cc(Cn4ccnc4C)cc3-c3cn(C)c(=O)cc3Cl)C2=O)ncc1C#N [Example 292],10 to 1000,10 to 1000,10 to 1000
CCOc1cc([C@H](C)N2CCc3c(cc(Cn4ccnc4C)cc3-c3nc(C(F)F)nn3C)C2=O)ncc1C#N [Example 293],10 to 1000,10 to 1000,10 to 1000
